Values after ≈ are worked out from the molar mass of the structure shown. Like-named read-outs stand apart in the source and are kept apart here.
How the values were obtained:
[1] = test system: P-388; assay: LAMELLARINS TOXICITY TO SENSITIVE TUMOR CELL LINE P-388 (MTT); type: cell-based; details: Mus musculus, P388, 72 h; P-388, sensitive, MTT, three days; read-out: ACTIVITY: IC50
Description: (§1) Sensitive and MDR cells were maintained, in logarithmic phase of growth, in Eagle's Minimum Essential Medium, with Earle's Balanced Salts, with non-essential amino acids, with 2.0 mM L-glutamine, without sodium bicarbonate (EMEM/neaa), supplemented with 5% Fetal Calf Serum (FCS), 10^-2 M sodium bicarbonate and 0.1 g/l penicillin G+0.1 g/l streptomycin sulfate.
(§2) In Vitro cell cytotoxicity was determined using the 3-[4,5-dimethylthiazol-2-yl]-2,5-dipheniltetrazolium bromide (MTT), from Sigma Ref:M-2128, for quantitative measurement of cell growth and viability. See, T. Mosmann, "Rapid Colorimetric Assay for Cellular Growth and Survival: Application to Proliferation and Cytotoxicity Assays," Journal of Immunological Methods, 65: 55-63 (1983).
(§3) The tumor cell lines employed have been: P-388 (ATCC CCL 46), suspension culture of a lymphoid neoplasm from a DBA/2 mouse and its corresponding MDR cell line P-388/SCHABEL; CHOB1 (ATCC CCL 16), monolayer culture of chinese hamster ovary and its corresponding MDR cell line CHOC5. See, Rauscher Ill, et al., "Characterization of Auromycin-Resistant Hamster Cell Mutants that Display a Multidrug Resistance Phenotype," Molecular Pharmacology, 38: 198-206 (1990).
(§4) This form of assay employs 96-well cell culture plates […]. Cells were seeded into wells at 1×10^3 cells per well in 100 μl aliquots of EMEM 5% FCS containing different concentrations of the corresponding lamellarins and other compounds (standards) to be tested. Two separate sets of cultures without drugs were seeded, one as control of growth to ensure that cells remained in exponential phase of growth, and another without cells as control of medium. All determinations were carried out in duplicate.
(§5) After three days of incubation at 37° C., 10% CO2 in a 98% humid atmosphere, 150 μg of MTT is added to each well in 50 μl aliquots of assay medium. Plates were incubated for an additional 4 hours and 100 μl aliquots of isopropanol were added to each well. The broad absorption spectrum for the isopropanol solution of this crystal is optimal at 570 nm. Optical density values were obtained with the help of a Dynatech microplate reader and the results of the assay were used to generate graphics from which IC50 was calculated; i.e., wherein the IC50 is the test concentration which produces 50% cell growth inhibition.

[2] = test system: CHOC5 (MDR); assay: LAMELLARINS TOXICITY TO RESISTANT (MDR) TUMOR CELL LINE CHOC5 (MTT); type: cell-based, chinese hamster; details: Cricetulus griseus, 72 h; CHOC5 (MDR), MTT, three days; read-out: ACTIVITY: IC50
Description: as §1, §2, §3, §4, §5

[3] = test system: P-388/SCHABEL (MDR); assay: LAMELLARINS TOXICITY TO RESISTANT (MDR) TUMOR CELL LINE P-388/SCHABEL (MTT); type: cell-based; details: Mus musculus, P388, 72 h; P-388/SCHABEL (MDR), MTT, three days; read-out: ACTIVITY: IC50
Description: as §1, §2, §3, §4, §5

[4] = test system: CHOB1; assay: LAMELLARINS TOXICITY TO SENSITIVE TUMOR CELL LINE CHOB1 (MTT); type: cell-based, chinese hamster; details: Cricetulus griseus, 72 h; CHOB1, sensitive, MTT, three days; read-out: ACTIVITY: IC50
Description: as §1, §2, §3, §4, §5

[5] = test system: P-388/SCHABEL; assay: Adriamycin toxicity to resistant cells (MDR) in presence or absence of reversing agents, P-388/SCHABEL; type: cell-based; details: Mus musculus, P388; control, Adriamycin only, R.A. 0 μg/ml
Description: (§6) Gain of Sensitivity (G.S.) = IC50 Control/IC50 R.A.
as §1, §4
(§7) Plates were incubated for an additional 4 hours and 100 μl aliquots of isopropanol were added to each well. The broad absorption spectrum for the isopropanol solution of this crystal is optimal at 570 nm.

[6] = test system: CHOC5; assay: Adriamycin toxicity to resistant cells (MDR) in presence or absence of reversing agents, CHOC5; type: cell-based, chinese hamster; details: Cricetulus griseus; control, Adriamycin only, R.A. 0 μg/ml
Description: as §6, §1, §4, §7

[7] = test system: A549; assay: Lamellarin in vitro activity vs. tumor cell lines, A549; details: for IC50: Homo sapiens
[8] = test system: P388; assay: Lamellarin in vitro activity vs. tumor cell lines, P388; details: Mus musculus
[9] = test system: HT-29; assay: Lamellarin in vitro activity vs. tumor cell lines, HT-29; type: cell-based; details: Homo sapiens; HT-29, Table IV
[10] = test system: MEL-28; assay: Lamellarin in vitro activity vs. tumor cell lines, MEL-28; type: cell-based; details: Homo sapiens, SK-MEL-28; MEL-28, Table IV

IC50 ([7]; A549) [µg/mL] | IC50 ([8]; P388) [µg/mL] | IC50 [9] [µg/mL] | IC50 [10] [µg/mL] | SMILES | IC50 [1] [µg/mL] | IC50 [2] [µg/mL] | IC50 [3] [µg/mL] | IC50 [4] [µg/mL] | IC50 [5] [µg/mL] | IC50 [6] [µg/mL] | IC50 ([7]; A549, read-out: cytotoxicity IC50) [µg/mL] | IC50 ([8]; P388, read-out: cytotoxicity IC50) [µg/mL] | in vitro antitumor activities ([7]; compared with lamellarins I, K and L, particularly A549 cells)
 |  |  |  | COc1cc(-c2c3c4cc(OC)c(O)cc4oc(=O)c3n3ccc4c(OC)c(OC)c(OC)cc4c23)ccc1O [Lamellarin B] | 5.5 (≈ 10.1 µM) | 10 (≈ 18.4 µM) | 5.5 (≈ 10.1 µM) | 3 (≈ 5.52 µM) |  |  |  |  | 
 |  |  |  | COc1cccc2c1C(=O)c1c(O)c3c(c(O)c1C2=O)C[C@@](O)(C(=O)CO)C[C@@H]3O[C@H]1C[C@H](N)[C@H](O)[C@H](C)O1 [Adriamycin, reference compound] | 0.15 (≈ 0.276 µM) | 3 (≈ 5.52 µM) | 1.2 (≈ 2.21 µM) | 0.15 (≈ 0.276 µM) | 1.2 | 3 |  |  | 
1 (≈ 1.79 µM) | 1 (≈ 1.79 µM) | 2 (≈ 3.57 µM) |  | COc1cc2c(cc1O)oc(=O)c1c2c(-c2ccc(OC)c(OC)c2)c2n1CCc1c-2cc(OC)c(OC)c1OC [Lamellarin I] | 2.5 (≈ 4.47 µM) | 1 (≈ 1.79 µM) | 2.5 (≈ 4.47 µM) | 0.2 (≈ 0.357 µM) |  |  | ~0.25 (≈ 0.447 µM) | ~0.25 (≈ 0.447 µM) | 
0.025 (≈ 0.0485 µM) | 0.1 (≈ 0.194 µM) | 2.5 (≈ 4.85 µM) | 2.5 (≈ 4.85 µM) | COc1cc2c(cc1O)CCn1c-2c(-c2ccc(OC)c(OC)c2)c2c3cc(OC)c(O)cc3oc(=O)c21 [Lamellarin J] | 1.5 (≈ 2.91 µM) | 0.6 (≈ 1.16 µM) | 2 (≈ 3.88 µM) | 0.3 (≈ 0.582 µM) |  |  |  |  | significantly better, particularly against A549 cells, than the lamellarins I, K and L
 |  |  |  | COc1cc(-c2c3c4cc(OC)c(OC(C)=O)cc4oc(=O)c3n3ccc4c(OC(C)=O)c(OC)c(OC)cc4c23)ccc1OC(C)=O [Lamellarin M-triacetate] | 0.6 (≈ 0.915 µM) | 2 (≈ 3.05 µM) | 0.7 (≈ 1.07 µM) | 0.5 (≈ 0.763 µM) |  |  |  |  | 
 |  |  |  | COc1ccc(CCN(C)CCCC(C#N)(c2ccc(OC)c(OC)c2)C(C)C)cc1OC (centres unmarked) [Verapamil, reference compound] | 10 (≈ 22 µM) | 4 (≈ 8.8 µM) | 10 (≈ 22 µM) | 9 (≈ 19.8 µM) |  |  |  |  | 
 |  |  |  | COc1cc(-c2c3n(c4c(=O)oc5cc(O)c(OC)cc5c24)C(O)Cc2c-3cc(OC)c(OC)c2OC)ccc1O (centres unmarked) [Lamellarin A] | 0.5 (≈ 0.89 µM) | 0.4 (≈ 0.712 µM) | 0.5 (≈ 0.89 µM) | 0.2 (≈ 0.356 µM) |  |  |  |  | 
 |  |  |  | COc1ccc(-c2c3n(c4c(=O)oc5cc(OC)c(OC)cc5c24)CCc2c-3cc(OC)c(OC)c2OC)cc1OC [Lamellarin I-Methylate] | 2.5 (≈ 4.36 µM) | 2.5 (≈ 4.36 µM) | 3 (≈ 5.23 µM) | 0.5 (≈ 0.872 µM) |  |  |  |  | 
